Test system: hyperhomocysteinemic rats subjected to MCAO
Assay: Accelerated Rotarod test after MCAO
Assay type: in vivo, male Wistar rats
Conditions: HHcy rats, day 8 post MCAO, NVP-AAM077 1.2 mg/kg; untreated HHcy 96.99±4.11 sec
Procedure: All rats were subjected to a battery of behavioral tests on day 7 (CatWalk), day 8 (cylinder and rotarod tests) and day 9 (adhesive test) after MCAO to evaluate normal gait, motor coordination and sensory motor functions. Habituation and training (3 days) was performed for one week before MCAO. The first two trainings days were before osmotic pump implantation and the third training day was after pump implantation. An experienced observer blinded to the experimental conditions evaluated all behavioral parameters.
Accelerated Rotarod test: Control, hyperhomocysteinemic and NVP-AAM077 treated hyperhomocysteinemic rats were subjected to the accelerated Rotarod test to evaluate impairment of motor co-ordination and balance following stroke (Bouet et al., 2007, Exp Neurol 203:555-567; Schaar et al., 2010, Exp Transl Stroke Med 2:13). Rats were placed on a rotating cylindrical rod accelerating from 0 to 50 rpm for a period of 180 seconds, and their latency to fall was recorded. The mean of four runs (10 min rest between trials) was used for statistical analysis. One hyperhomocysteinemic rat was excluded from the study as the rat jumped off the rod repeatedly.

SMILES: C[C@H](NC(c1cccc2[nH]c(=O)c(=O)[nH]c12)P(=O)(O)O)c1ccc(Br)cc1 (stereo partly drawn) [NVP-AAM077, ({[(1S)-1-(4-bromophenyl)ethyl]amino}-(2,3-dioxo-1,4-dihydroquinoxalin-5-yl)methyl)phosphonic acid]
- latency to fall from accelerated rotarod: 112.51 ± 4.9 s

— US11541065B2, “Compositions and methods for treating brain injury” (UNM RAINFOREST INNOVATIONS, priority 2018, dated 2023)
